Experimental findings from PMC12543159, “Characterization and ligand binding properties of a fatty acid- and retinol- binding protein (Hp-FAR-2) from Heligmosomoides polygyrus” (PLOS Neglected Tropical Diseases, 2025) are described below.

Holding throughout (assay type): binding
For assay [1], the target named is T1, Hp-FAR-2 (Heligmosomoides polygyrus, UniProt A0A183GLK6).
T1 construct: mature Hp-FAR-2, amino acids 18–180, N-terminal 6-His-tag
Description: DAUDA displacement fluorescence competition ([…] excess, […]).

The target of assay [2] is T1, Hp-FAR-2. As to the kind of experiment: fluorescence titration of DAUDA with purified Hp-FAR-2 (blue shift).
Assay [3] deals with T1, Hp-FAR-2. Description: DAUDA displacement fluorescence competition ([…] and […]).
In assay [4] the target is T1, Hp-FAR-2. Description: retinol fluorescence titration with purified Hp-FAR-2.

The Kd is the equilibrium constant for the complex coming apart.

T1 sequence (A0A183GLK6 entry or part of it): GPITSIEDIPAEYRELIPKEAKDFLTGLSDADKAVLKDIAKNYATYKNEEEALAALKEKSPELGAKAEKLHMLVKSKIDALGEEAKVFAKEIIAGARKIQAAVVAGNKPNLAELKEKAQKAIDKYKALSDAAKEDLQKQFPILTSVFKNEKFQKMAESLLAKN

Consider `CCCCC/C=C\C/C=C\C/C=C\C/C=C\CCCC(=O)O` [AA, arachidonic acid], for which the “DAUDA displacement fluorescence competition (10-fold excess, 10 μM)” value in assay [1] is given as “All fatty acids except α-linolenic acid significantly displaced DAUDA compared to DAUDA alone”. `CN(C)c1cccc2c(S(=O)(=O)NCCCCCCCCCCC(=O)O)cccc12` [DAUDA]: in assay [2], the Kd was found to be 3.16 µM.

Turning to `CC/C=C\C/C=C\C/C=C\C/C=C\C/C=C\C/C=C\CCC(=O)O` [DHA, docosahexaenoic acid], the “DAUDA displacement fluorescence competition (1:1 and 1:10)” value in assay [3] was “Oleic acid, linoleic acid, and docosahexaenoic acid all significantly displaced DAUDA”. On to `CC/C=C\C/C=C\C/C=C\C/C=C\C/C=C\CCCC(=O)O` [EPA, eicosapentaenoic acid], for which the “DAUDA displacement fluorescence competition (10-fold excess, 10 μM)” value in assay [1] is “All fatty acids except α-linolenic acid significantly displaced DAUDA compared to DAUDA alone”. On to `CCCCC/C=C\C/C=C\CCCCCCCC(=O)O` [LA, linoleic acid], for which the “DAUDA displacement fluorescence competition (1:1 and 1:10)” value in assay [3] was “Oleic acid, linoleic acid, and docosahexaenoic acid all significantly displaced DAUDA”. The same measure, in the same setting: to `CCCCCCCC/C=C\CCCCCCCC(=O)O` [OA, oleic acid] belongs “Oleic acid, linoleic acid, and docosahexaenoic acid all significantly displaced DAUDA”. As for `CCCCCCCCCCCCCCCC(=O)O` [PA, palmitic acid], the “DAUDA displacement fluorescence competition (10-fold excess, 10 μM)” value in assay [1] is “All fatty acids except α-linolenic acid significantly displaced DAUDA compared to DAUDA alone”.

`CC1=C(/C=C/C(C)=C/C=C/C(C)=C/CO)C(C)(C)CCC1` [retinol]: binding in assay [4] was put at a Kd of 3.24 µM.
